{"source": "patent US6784173B2", "about": "“Aromatic dicarboxylic acid derivatives” (Hoffmann-La Roche Inc., priority 2001, dated 2004)", "test_system": "HT-29 cells (human colon carcinoma cell line)", "test": "MTT tetrazolium dye proliferation assay on HT-29 cells", "assay_type": "cell-based", "conditions": "MTT assay after 5 days of compound exposure, 30 uM to 1.5 nM, read-out: IC50 HT29", "description": "MTT (tetrazolium dye proliferation assay) is widely used for the quantitative determination of cytotoxic effects or in vitro chemosensitivity of tumor cells. The assay is based on the cleavage of the yellow tetrazolium salt MTT to purple formazan crystals by metabolic active cells. For details, see Rubinstein, L. V., et al., J. Natl. Cancer Inst. 82 (1990) 1113-1118.\nThe following procedure was performed: HT-29 cells (human colon carcinoma cell line) were cultivated in RPMI 1640, 2.5% FCS, 2 mM Glutamine, 100 u/ml Penicillin, 100 ug/ml Streptomycin. For the assay the cells were seeded in 384 well plates, 900 cells per well, in the same medium The next day compounds (dissolved 10 mM in DMSO) were added in various concentrations ranging from 30 uM to 1.5 nM. After 5 days the MTT assay was done mainly according to the instructions of the manufacturer (Cell proliferation kit I, MTT, form Roche Molecular Biochemicals). In brief: MTT labeling reagent was added to a final concentration of 0.5 mg/ml, added and incubated for 4 hrs at 37 C., 5% CO2. During this incubation time purple formazan crystals are formed. After addition of the solubilization solution (20% SDS in 0.02 M HCl) the plates were incubated overnight at 37 C, 5% CO2. After careful mixing plates were measured in Victor 2 (scanning multiwell spectrophotometer, Wallac) at 550 nm.\nA decrease in number of living cells results in a decrease in the total metabolic activity in the sample. The decrease directly correlates to the amount of purple colour resulting from the solubilization of the purple formazan crystals. Determination of IC50 was done using XL-fit."}
{"smiles": "O=C(NO)c1ccc(C(=O)NCCOc2ccccc2)s1", "note": "[Example 15, No. 104, Thiophene-2,5-dicarboxylic acid 2-hydroxyamide 5-[(2-phenoxy-ethyl)-amide]]", "values": [{"measurement": "IC50", "result": 0.04, "unit": "µM"}]}
{"smiles": "Cc1cc(C)cc(CNC(=O)c2ccc(C(=O)NO)s2)c1", "note": "[Example 5, Thiophene-2,5-dicarboxylic acid 2-(3,5-dimethyl-benzylamide) 5-hydroxyamide]", "values": [{"measurement": "IC50", "result": 0.05, "unit": "µM"}]}
{"smiles": "CC(C)CCCC(C)NC(=O)c1ccc(C(=O)NO)s1", "note": "(centres unmarked) [Example 15, No. 81, thiophene-2,5-dicarboxylic acid 2-[(1,5-dimethyl-hexyl)-amide] 5-hydroxyamide]", "values": [{"measurement": "IC50", "result": 0.03, "unit": "µM"}]}
{"smiles": "O=C(NO)c1ccc(C(=O)NCCC(c2ccccc2)c2ccccc2)s1", "note": "[Example 15, No. 90, thiophene-2,5-dicarboxylic acid 2-[(3,3-diphenyl-propyl)-amide] 5-hydroxyamide]", "values": [{"measurement": "IC50", "result": 0.14, "unit": "µM"}]}
{"smiles": "O=C(NO)c1ccc(C(=O)NCc2cccc(Cl)c2)s1", "note": "[Example 4, Thiophene-2,5-dicarboxylic acid 2-(3-chloro-benzylamide) 5-hydroxyamide]", "values": [{"measurement": "IC50", "result": 0.14, "unit": "µM"}]}
{"smiles": "O=C(NO)c1ccc(C(=O)NCc2ccc(C(F)(F)F)cc2)s1", "note": "[Example 2, Thiophene-2,5-dicarboxylic acid 2-hydroxyamide 5-(4-trifluoromethyl-benzylamide)]", "values": [{"measurement": "IC50", "result": 0.11, "unit": "µM"}]}
{"smiles": "O=C(NO)c1ccc(C(=O)NCc2ccc(Cl)c(Cl)c2)s1", "note": "[Example 15, No. 139, Thiophene-2,5-dicarboxylic acid 2-(3,4-dichloro-benzylamide) 5-hydroxyamide]", "values": [{"measurement": "IC50", "result": 0.17, "unit": "µM"}]}
{"smiles": "O=C(NO)c1ccc(C(=O)NCc2cccc(Br)c2)s1", "note": "[Example 15, No. 94, Thiophene-2,5-dicarboxylic acid 2-(3-bromo-benzylamide) 5-hydroxyamide]", "values": [{"measurement": "IC50", "result": 0.07, "unit": "µM"}]}
{"smiles": "CC(CCc1ccccc1)NC(=O)c1ccc(C(=O)NO)s1", "note": "(centres unmarked) [Example 15, No. 128, Thiophene-2,5-dicarboxylic acid 2-hydroxyamide 5-[(1-methyl-3-phenyl-propyl)-amide]]", "values": [{"measurement": "IC50", "result": 0.02, "unit": "µM"}]}
{"smiles": "CC(C)(C)c1ccc(CNC(=O)c2ccc(C(=O)NO)s2)cc1", "note": "[Example 15, No. 98, Thiophene-2,5-dicarboxylic acid 2-(4-tert-butyl-benzylamide) 5-hydroxyamide]", "values": [{"measurement": "IC50", "result": 0.07, "unit": "µM"}]}
{"smiles": "O=C(NO)c1ccc(C(=O)NCc2cc(C(F)(F)F)cc(C(F)(F)F)c2)s1", "note": "[Example 15, No. 93, Thiophene-2,5-dicarboxylic acid 2-(3,5-bis-trifluoromethyl-benzylamide) 5-hydroxyamide]", "values": [{"measurement": "IC50", "result": 0.05, "unit": "µM"}]}
